One experiment has as its target human P2Y12 receptor (Homo sapiens, UniProt Q9H244). The experiment is described as follows: Human P2Y12 recombinant cell membrane binding assay with 33P 2MeS-ADP. As to conditions: competition against 33P 2MeS-ADP, membranes of CHO cells with recombinant human P2Y12 receptor. How it is done: The ability of the compounds of the formula Ito inhibit the P2Y12 receptor can be assessed by determining the concentration of the compound of the formula I that binds to the human P2Y12 Recombinant Cell Membrane Binding Assay with 33P 2MeS-ADP.
Human P2Y12 Recombinant Cell Membrane Binding Assay
The ability of a test compound to bind to the P2Y12 receptor was evaluated in a recombinant cell membrane binding assay. In this competitive binding assay, the test compound competed against a radiolabeled agonist for binding to the P2Y12 receptor, expressed on the cell membrane. Inhibition of binding of the labeled material was measured and correlated to the amount and potency of the test compound. This binding assay is a modification of the procedure described by Takasaki, J. et. al, Mol. Pharmacol., 2001, Vol. 60, pg. 432. A membrane preparation was prepared from Chinese Hamster Ovary (CHO) cells with recombinant expression of the human P2Y12 receptor according to standard procedures as a source of P2Y12.
To a 96-well microtiterplate the following were added: a) 24 μl of assay buffer (10 mM HEPES, 138 mM NaCl, […] KCl, 12 mM NaHCO3, 1 mM EDTA-Na, 0.1% BSA, pH 7.4) b) 1 μL compound in DMSO c) 50 μL P2Y12 CHO membrane (20 μg/ml) and after 15 min at RT d) 25 μL of 1.61 nM 33P 2MeS-ADP (Perkin Elmer NEN custom synthesis, specific activity ˜2100 Ci/mmol) made in assay buffer.
After 20 min incubation at RT samples were transferred to 96-well microtiter filterplates (Millipore HTS GF/B), pre-wetted for 20 min with 300 μL of stop buffer (10 mM HEPES, 138 mM NaCl pH 7.4) and then filtered through completely with a Millipore plate vacuum. Next, wells were washed four times with 400 μl/well of stop buffer on a plate vacuum. The plate was disassembled and allowed to air dry overnight with the filter side up over night. The filter plates were snapped into adapter plates and 0.1 mL of Microscint 20 Scintillation Fluid (Perkin Elmer #6013621) was added to each well. The top of the filterplate was sealed with plastic plate covers. The sealed filterplate were incubated 2 hours at RT. A Microbeta Scintillation Counter was used to measure counts.
Compounds were diluted as 10 mM DMSO stocks and tested in a four-point, five-fold dilution series run in triplicate beginning at 10 μM, final concentration. Data were analyzed using a four-parameter curve fit with a fixed minimum and maximum experimentally defined as the average positive and negative controls on each plate.

The test system of experiment [1] is human platelet rich plasma. The experiment in a line: Inhibition of human platelet aggregation, 96-well assay. The experiment is classed as cell-based. As to conditions: Homo sapiens, Platelet, 20 min. How it is done:
Inhibition of Human Platelet Aggregation
Alternatively to a binding assay which measures a compound's ability to bind to the P2Y12 receptor, the effect on cellular function was also determined. This ability of the compound was evaluated in two platelet aggregation assays: in 96-well plates and with the “Born”-method using single cuvettes.
Whole blood was collected from healthy volunteers using 20 ml syringes containing 2 ml of ACD-A Aqua-Citrat-Dextrose-A, Fresenius). The anticoagulated whole blood was transferred into 15 ml polypropylene conical tubes (10 ml per tube). The tubes were centrifuged for 15 minutes at 150×g at RT without using the centrifuge brake. This procedure leads to a pellet of cellular components and a supernatant of platelet rich plasma (PRP). The PRP layer was collected from each tube and pooled for each donor. To avoid carry over of cellular components following centrifugation, approximately 5 ml of PRP was left in the tube. The platelet concentration was determined using a Coulter Counter.
The 15 ml tubes containing the pellet of cellular components were centrifuged again for 10 minutes at 1940×g. This pelleted out most particulate blood constituents remaining, leaving a layer of Platelet Poor Plasma (PPP). The PPP was collected for each donor. The PRP layer, previously set aside, was diluted with PPP to a final concentration of approximately 3×E8 platelets/ml with the PPP.
The human platelet aggregation assay is performed in 96-well plates using a microtiter plate reader (SpectraMax Plus 384 with SoftMax Pro software from Molecular Devices). In the plate 15 μl of test compound at 10× final concentration in NaCl is mixed with 120 μl fresh PRP and incubated for 5 minutes. Following that incubation period, 15 μl of 40 μM ADP is added to the reaction mix. This addition of ADP is sufficient to induce aggregation in the absence of an inhibitor. The plates are then transferred to the microplate reader and aggregation is measured over 20 minutes. The instrument settings include:
Absorbance at 650 nm, run time 20 minutes with readings in 1-minute intervals and 50 seconds shaking between readings all performed at 37° C.

Chain of human P2Y12 receptor (Q9H244 whole entry): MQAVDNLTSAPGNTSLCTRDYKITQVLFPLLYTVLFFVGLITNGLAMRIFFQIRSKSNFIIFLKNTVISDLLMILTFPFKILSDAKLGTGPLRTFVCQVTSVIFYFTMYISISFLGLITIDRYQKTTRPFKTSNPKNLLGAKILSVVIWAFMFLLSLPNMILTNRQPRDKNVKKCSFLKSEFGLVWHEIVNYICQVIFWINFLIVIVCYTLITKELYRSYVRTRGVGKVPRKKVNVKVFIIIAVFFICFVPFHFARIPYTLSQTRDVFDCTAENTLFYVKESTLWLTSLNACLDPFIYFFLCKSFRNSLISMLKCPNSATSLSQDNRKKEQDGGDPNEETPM

On to `CCOC(=O)N1CCN(C(=O)[C@H](CCC(=O)O)NC(=O)c2cc(OCC(=O)N3CCC[C@H]3C(=O)NCCSC)n(-c3ccccc3)n2)CC1` [Example 3, 4-{(S)-4-Carboxy-2-[(5-{2-[(S)-2-(2-methylsulfanyl-ethylcarbamoyl)-pyrrolidin-1-yl]-2-oxo-ethoxy}-1-phenyl-1H-pyrazole-3-carbonyl)-amino]-butyryl}-piperazine-1-carboxylic acid ethyl ester], for which the IC50 at human P2Y12 receptor stood at 183 nM.
Still for that read-out and setting: next, `CCOC(=O)N1CCN(C(=O)[C@H](CC(=O)O)NC(=O)c2cc(OCC(=O)N3CCC[C@H]3C(=O)NCC(F)F)n(-c3ccccc3)n2)CC1` [Example 57, 4-{(S)-3-Carboxy-2-[(5-{2-[(S)-2-(2,2-difluoro-ethylcarbamoyl)-pyrrolidin-1-yl]-2-oxo-ethoxy}-1-phenyl-1H-pyrazole-3-carbonyl)-amino]-propionyl}-piperazine-1-carboxylic acid ethyl ester]: 183 nM.
As to `CCOC(=O)N1CCN(C(=O)[C@H](CC(=O)O)NC(=O)c2cc(OCC(=O)N3CCC[C@H]3C(=O)NCCF)n(-c3cccc(F)c3)n2)CC1` [Example 78, 4-((S)-3-Carboxy-2-{[5-[2-((S)-2-(2-fluoroethylcarbamoyl)-pyrrolidin-1-yl)-2-oxo-ethoxy]-1-(3-fluoro-phenyl)-1H-pyrazole-3-carbonyl]-amino}-propionyl)-piperazine-1-carboxylic acid ethyl ester], the IC50 on human P2Y12 receptor came out at 190 nM.
Still for that read-out and setting: under `CCOC(=O)N1CCN(C(=O)[C@H](CC(=O)O)NC(=O)c2cc(OCC(=O)N3CCC[C@H]3C(=O)NCC(F)F)n(-c3cccc(F)c3)n2)CC1` [Example 79, 4-((S)-3-Carboxy-2-{[5-[2-((S)-2-(2,2-difluoroethylcarbamoyl)-pyrrolidin-1-yl)-2-oxo-ethoxy]-1-(3-fluoro-phenyl)-1H-pyrazole-3-carbonyl]-amino}-propionyl)-piperazine-1-carboxylic acid ethyl ester] stands 145 nM; under `CCOC(=O)N1CCN(C(=O)[C@H](CCC(=O)O)NC(=O)c2cc(OCC(=O)N3CCC[C@H]3C(=O)NCC(F)(F)F)n(-c3ccc(F)c(F)c3)n2)CC1` [Example 85, 4-((S)-4-Carboxy-2-{[5-[2-((S)-2-(2,2,2-trifluoroethylcarbamoyl)-pyrrolidin-1-yl)-2-oxo-ethoxy]-1-(3,4-difluoro-phenyl)-1H-pyrazole-3-carbonyl]-amino}-butyryl)-piperazine-1-carboxylic acid ethyl ester], 154 nM; under `CCOC(=O)N1CCN(C(=O)[C@H](CNS(C)(=O)=O)NC(=O)c2cc(OCC(=O)N3CCC[C@H]3C(=O)NC3CCC3)n(-c3ccccc3)n2)CC1` [Example 88, 4-[(S)-2-({5-[2-((S)-2-Cyclobutylcarbamoyl-pyrrolidin-1-yl)-2-oxo-ethoxy]-1-phenyl-1H-pyrazole-3-carbonyl}-amino)-3-methanesulfonylamino-propionyl]-piperazine-1-carboxylic acid ethyl ester], 125 nM.
Turning to `CCOC(=O)N1CCN(C(=O)[C@H](CNC(=O)OC)NC(=O)c2cc(OCC(=O)N3CCC[C@H]3C(=O)NC3CCC3)n(-c3ccccc3)n2)CC1` [Example 89, 4-[(S)-2-({5-[2-((S)-2-Cyclobutylcarbamoyl-pyrrolidin-1-yl)-2-oxo-ethoxy]-1-phenyl-1H-pyrazole-3-carbonyl}-amino)-3-methoxycarbonylamino-propionyl]-piperazine-1-carboxylic acid ethyl ester], at human P2Y12 receptor, the half-inhibitory concentration (IC50) stood at 111 nM.
The same measure, in the same setting: next, `CCOC(=O)C(=O)NC[C@H](NC(=O)c1cc(OCC(=O)N2CCC[C@H]2C(=O)NC2CCC2)n(-c2ccccc2)n1)C(=O)N1CCN(C(=O)OCC)CC1` [Example 90, 4-[(S)-2-({5-[2-((S)-2-Cyclobutylcarbamoyl-pyrrolidin-1-yl)-2-oxo-ethoxy]-1-phenyl-1H-pyrazole-3-carbonyl}-amino)-3-(ethoxyoxalyl-amino)-propionyl]-piperazine-1-carboxylic acid ethyl ester]: 35 nM.
With `CCOC(=O)N1CCN(C(=O)[C@H](CNC(=O)C2CC2)NC(=O)c2cc(OCC(=O)N3CCC[C@H]3C(=O)NC3CCC3)n(-c3ccccc3)n2)CC1` [Example 91, 4-[(S)-2-({5-[2-((S)-2-Cyclobutylcarbamoyl-pyrrolidin-1-yl)-2-oxo-ethoxy]-1-phenyl-1H-pyrazole-3-carbonyl}-amino)-3-(cyclopropanecarbonyl-amino)-propionyl]-piperazine-1-carboxylic acid ethyl ester], at human P2Y12 receptor, the 50% inhibitory concentration (IC50) is 130 nM.
Turning to `CCOC(=O)N1CCN(C(=O)[C@H](CCNS(C)(=O)=O)NC(=O)c2cc(OCC(=O)N3CCC[C@H]3C(=O)NC3CCC3)n(-c3ccccc3)n2)CC1` [Example 94, 4-[(S)-2-({5-[2-((S)-2-Cyclobutylcarbamoyl-pyrrolidin-1-yl)-2-oxo-ethoxy]-1-phenyl-1H-pyrazole-3-carbonyl}-amino)-4-methanesulfonylamino-butyryl]-piperazine-1-carboxylic acid ethyl ester], the 50% inhibitory concentration (IC50) on human P2Y12 receptor was determined as 59 nM.
Same read-out and setting: next, `CCOC(=O)N1CCN(C(=O)[C@H](CCNC(=O)C(C)(C)C)NC(=O)c2cc(OCC(=O)N3CCC[C@H]3C(=O)NC3CCC3)n(-c3ccccc3)n2)CC1` [Example 99, 4-[(S)-2-({5-[2-((S)-2-Cyclobutylcarbamoyl-pyrrolidin-1-yl)-2-oxo-ethoxy]-1-phenyl-1H-pyrazole-3-carbonyl}-amino)-4-(2,2-dimethyl-propionylamino)-butyryl]-piperazine-1-carboxylic acid ethyl ester]: 158 nM; `CCOC(=O)N1CCN(C(=O)[C@H](CCNC(=O)C(C)C)NC(=O)c2cc(OCC(=O)N3CCC[C@H]3C(=O)NC3CCC3)n(-c3ccccc3)n2)CC1` [Example 100, 4-[(S)-2-({5-[2-((S)-2-Cyclobutylcarbamoyl-pyrrolidin-1-yl)-2-oxo-ethoxy]-1-phenyl-1H-pyrazole-3-carbonyl}-amino)-4-isobutyrylamino-butyryl]-piperazine-1-carboxylic acid ethyl ester]: 197 nM.
In turn, `CCOCCOC(=O)N1CCN(C(=O)CNC(=O)c2cc(OCC(=O)N3CCC[C@H]3C(=O)NC3CCC3)n(-c3ccccc3)n2)CC1` [Example 257, 4-[2-({5-[2-((S)-2-Cyclobutylcarbamoyl-pyrrolidin-1-yl)-2-oxo-ethoxy]-1-phenyl-1H-pyrazole-3-carbonyl}-amino)-acetyl]-piperazine-1-carboxylic acid 2-ethoxy-ethyl ester] yielded an IC50 in experiment [1] of 240 nM.
The same measure, in the same setting: next, `O=C(NCC(=O)N1CCN(C(=O)OCc2ccccc2)CC1)c1cc(OCC(=O)N2CCC[C@H]2C(=O)NC2CCC2)n(-c2ccccc2)n1` [Example 275, 4-[2-({5-[2-((S)-2-Cyclobutylcarbamoyl-pyrrolidin-1-yl)-2-oxo-ethoxy]-1-phenyl-1H-pyrazole-3-carbonyl}-amino)-acetyl]-piperazine-1-carboxylic acid benzyl ester]: 490 nM.

In general, IC50 refers to the concentration that gives 50% inhibition.

(Values after US8426420B2, “Heterocyclic pyrazole-carboxamidesas P2Y12 antagonists” (Sanofi, priority 2007, dated 2013).)
